# Legend:
# [1] = biological target: T1, cathepsin B (Homo sapiens, UniProt P07858); assay: Cathepsin B activity assay in treated HeLa cells; format: cell-based; details: 24 h, concentration-dependent, HeLa wt
# T1 construct: host or cells: HeLa wt cells
# Source text: Antibodies against β-actin (Sigma-Aldrich, St. Louis, MO, USA, #A5316, clone AC-74, 1:5000), B4GALT1 (Sigma-Aldrich, St. Louis, MO, USA, #HPA010807, 1:200), GAPDH (abcam, Cambridge, UK, #ab8245, 1:5000), GRASP55 (Proteintech, Chicago, IL, USA, #10,598–1-AP, 1:200 for IF and 1:2000 for WB), LAMP1 (Sigma-Aldrich, St. Louis, MO, USA, #L1418, 1:200), LC3B (MBL, Woburn, MA, USA, #M-152–3, 1:200 for IF and Cell Signalling Technology, Danvers, MA, USA, #2775, 1:1000 for WB), SQSTM1 (PROGEN, Heidelberg, Germany, #GP62-C, 1:1000) and TGN46 (Bio-Rad, Hercules, CA, USA, #AHP500GT, 1:200) were used. For WB, IRDye 800- or IRDye 680-conjugated secondary antibodies were purchased from LI-COR Biosciences (Lincoln, NE, USA, #926–68,077, #926–32,211 and #926–32,210). […] The cathepsin activity of treated HeLa cells was quantified using the fluorimetric Cathepsin B Activity Assay Kit (abcam, Cambridge, UK, #ab65300) according to the manufacturer´s instructions and measured with a microplate reader (SynergyMx, BioTek, Winooski, VT, USA).
# [2] = system: HeLa GRASP55 KO cells; assay: Secretome analysis by data-independent mass spectrometry; format: cell-based; details: 100 nM, 24 h, serum-free, not apparent in wt
# Procedure: For the preparation of secretomes, 2*10^5 HeLa wt or HeLa GRASP55 KO cells per well were seeded in a 6-well plate (n = 5 replicates for 4 different groups). […] After incubation, the medium was collected, centrifuged at 1,000 × g and 4 °C for 10 min and filtered through a 0.2 µm Acrodisc syringe filter (VWR, Radnor, PA, USA, #514–4131). After adding protease inhibitor cocktail (Roche, Basel, Switzerland, #5,892,791,001), the samples were snap frozen in liquid nitrogen and stored at -80 °C. Proteins were prepared for mass spectrometric analysis by a modified single-pot, solid-phase-enhance sample preparation (SP3) method. […] Finally, the sample was reconstituted in 0.1% trifluoroacetic acid and half of the sample analyzed by mass spectrometry. […]
# Only proteins identified with at least two different peptides and 4 valid intensity values (MaxLFQ) in at least one experimental group were considered for further analysis. […] Annotation dependent significant abundance changes of protein groups were analysed using 1D and 2D annotation enrichment and respective differences visualized with split-violin plots with OriginPro 2020b.
structure (smiles),measurement,setting,value
"CCCCCC1=C/C(=C/c2[nH]c(-c3ccc[nH]3)cc2OC)N=C1C [Prodigiosin, prodigiosin]",cathepsin B activity,[1],significantly reduced
same,abundance of signal peptide (SP) proteins in the secretome,[2],higher abundances

# — PMC10552397 (Cell Communication and Signaling : CCS, 2023)
